Values after ≈ are worked out from the molar mass of the structure shown.

For this series the following is noted: buffer; pH 7.4; 200.0 µM.
By kinetic solubility is commonly meant the concentration staying in solution when a stock, usually in DMSO, is diluted into the medium. Take `Cl.O=[N+]([O-])c1cc(S(=O)(=O)CCCN2CCOCC2)ccc1F`: the solubility (kinetic) was greater than 55.3 µg/mL.
For `C#CCN1C(=O)C2(OCCO2)c2ccccc21` the value was greater than 34.4 µg/mL; for `OCCNC(=S)NCc1ccccc1`, 31.5 µg/mL (≈ 150 µM).
The figure for `CCOC(=O)Cn1ccc(NC(=O)COc2ccc(F)cc2)n1` is greater than 48.2 µg/mL; for `O=C(Cc1ccc(Cl)cc1)NCC(=O)N1CCCCC1` it is 39.7 µg/mL (≈ 135 µM); for `O=C(NC(=S)Nc1ccccc1[N+](=O)[O-])c1ccccc1Cl` it is 1.2 µg/mL (≈ 3.57 µM).
For `Cc1cc(N/C=C/C(=O)c2cccs2)ccc1F` the value was 1.7 µg/mL (≈ 6.51 µM).
`Cc1oncc1C(=O)Nc1ccc2ccccc2c1` registered a solubility (kinetic) of 9.8 µg/mL (≈ 38.8 µM).
The figure for `Cc1noc(C)c1C(=O)Nc1ccc2ccccc2c1` is 11.2 µg/mL (≈ 42.1 µM); for `O=C(CCC(=O)N1CCN(c2ccccc2F)CC1)c1ccc(Cl)s1` it is 19.5 µg/mL (≈ 51.2 µM).
For `Cc1nonc1NC(=O)CSc1nc2ccc(Cl)cc2[nH]1` the value was 36.4 µg/mL (≈ 112 µM); for `O=C(c1cccc(F)c1)N1CCC(c2nc3ccccc3s2)CC1`, greater than 51.1 µg/mL.
The figure for `Cc1nnc(SCC(=O)c2c(N)n(C3CC3)c(=O)[nH]c2=O)n1C` is greater than 50.5 µg/mL; for `Nn1c(C2CCCCC2)nc2ccccc2c1=O` it is greater than 36.5 µg/mL; for `O=C(NCc1ccccn1)c1cccc(S(=O)(=O)N2CCc3ccccc32)c1` it is 21 µg/mL (≈ 53.4 µM).
As for `Cc1noc(C)c1COc1ncnc2ccccc12`, the solubility (kinetic) is greater than 38.3 µg/mL.
For `CCOc1ccccc1NCc1cc(=O)oc2cc(C)ccc12` the value was 6.2 µg/mL (≈ 20 µM); for `O=C(NCc1ccccn1)Nc1cccc(Cl)c1Cl`, greater than 44.4 µg/mL; for `CCOC(=O)c1c(NC(=O)NC(C)(C)C)sc2c1CCN(C)C2`, 14.9 µg/mL (≈ 43.9 µM).
For `CCCCOC(=O)Nc1nnc(C(C)C)s1` the value was greater than 36.5 µg/mL; for `COc1ccc(N2C(=S)NC3CS(=O)(=O)CC32)cc1` (configuration not stated), greater than 44.8 µg/mL; for `Cc1ccccc1Nc1ccc([N+](=O)[O-])cn1`, greater than 34.4 µg/mL.
The figure for `CCC(C)c1ccccc1NC(=O)C(C)OC(=O)c1ccco1` (configuration not stated) is greater than 47.3 µg/mL; for `CCNC(=S)Nc1cc2oc3ccccc3c2cc1OC` it is 3.2 µg/mL (≈ 10.7 µM).
As for `COc1ccc(Oc2cccc(Cl)c2CNC(=O)CSCC(=O)O)cc1`, the kinetic solubility is greater than 59.4 µg/mL.
Regarding `Cc1ccc(O)c(NC(=S)NC(=O)Cc2ccc(Cl)cc2)c1`, the kinetic solubility turned out to be 1.3 µg/mL (≈ 3.88 µM).
The figure for `O=C(O)CCN1C(=O)c2ccc(NC(=O)c3ccco3)cc2C1=O` is greater than 49.2 µg/mL; for `CC(C)c1onc(C(=O)N2CCC(C(N)=O)CC2)c1[N+](=O)[O-]` it is greater than 46.5 µg/mL; for `CC1CCCCC1NC(=O)COC(=O)c1ccc2c(c1)NC(=O)CS2` (configuration not stated) it is 9.8 µg/mL (≈ 27 µM).
For `NC(=S)NNc1cccc2cccnc12` the value was greater than 32.7 µg/mL; for `COc1ccc(NC(=O)Cn2c(C)csc2=O)c(OC)c1`, greater than 46.3 µg/mL.
The figure for `NC(=O)COC(=O)/C=C/c1ccccc1[N+](=O)[O-]` is 33.1 µg/mL (≈ 132 µM).
Turning to `CCN(CC)CCC#CC1(O)c2ccccc2-c2ccccc21`, the solubility (kinetic) was greater than 45.8 µg/mL.
The figure for `CCC(C)c1ccc(NC(=S)N2CCN(S(C)(=O)=O)CC2)cc1` (configuration not stated) is 8.8 µg/mL (≈ 24.8 µM).
For `O=C(NCCCN1CCOCC1)C(c1ccccc1)c1ccccc1` the value was greater than 50.8 µg/mL.
For `COC(=O)c1ccc(C(=O)OC)c(NC(=O)CN2CCC(C)CC2)c1` the value was 0.6 µg/mL (≈ 1.72 µM); for `COCCn1c(SCC(=O)NNC(=O)c2ccccc2)nc2ccccc21`, greater than 57.7 µg/mL.
In turn, `NS(=O)(=O)c1ccc(NC(=O)COC(=O)Cn2cnc3ccccc3c2=O)cc1` showed a solubility (kinetic) of 18 µg/mL (≈ 43.2 µM).
Compound `Cc1ccc(OCC(=O)N(C)C2CCCCC2)c([N+](=O)[O-])n1` came in with a kinetic solubility greater than 46.1 µg/mL.
For `COc1cc2c(cc1OC)C(C)N(C(=O)c1cc(Cl)nc(Cl)c1)CC2` (configuration not stated) the value was 17.1 µg/mL (≈ 44.9 µM); for `Cl.O=c1cc[nH]c2c1ccc1c(=O)cc[nH]c12`, 34.6 µg/mL.
The figure for `COc1ccc(C(=O)CCC(C)(C)[N+](=O)[O-])cc1OC` is greater than 42.2 µg/mL; for `CCn1c(SCc2ccccc2)nc2cc(S(N)(=O)=O)ccc21` it is 2.2 µg/mL (≈ 6.33 µM).
The figure for `Cc1ccc(Cn2cccc(NS(C)(=O)=O)c2=O)cc1` is greater than 43.9 µg/mL; for `CCOc1ccc2[nH]c3c(N4CCC5(CC4)OCCO5)ncnc3c2c1` it is 4 µg/mL (≈ 11.3 µM).
For `COc1cc2[nH]c(=S)n(Cc3cccs3)c(=O)c2cc1OC`, the solubility (kinetic) was less than 0.4 µg/mL.
Turning to `Cc1cccc(S(=O)(=O)Nc2ccc3c(c2)OCCO3)c1`, the solubility (kinetic) was found to be 28.7 µg/mL (≈ 94 µM).
For `O=C(Nc1ncccc1O)c1ccc(Oc2ccccc2)cc1` the value was greater than 45.9 µg/mL; for `O=C(CN1C(=O)NC2(CCCCCC2)C1=O)NCc1ccccc1`, greater than 49.4 µg/mL; for `COc1ccc(-n2c(-c3ccccc3)nc3ccccc3c2=O)cc1`, 3.3 µg/mL (≈ 10 µM).
The figure for `Cc1cc(F)ccc1S(=O)(=O)N(CC(=O)N1CCOCC1)CC(=O)N1CCOCC1` is greater than 66.5 µg/mL; for `COc1ccc(S(=O)(=O)N2CCOCC2)cc1NC(=O)COC(=O)c1[nH]c(C)c(C(C)=O)c1C` it is 8.8 µg/mL (≈ 17.8 µM).
The figure for `CN(C)S(=O)(=O)c1cc(NC(=O)COC(=O)CC2Sc3ccccc3NC2=O)ccc1Cl` (configuration not stated) is 12.2 µg/mL (≈ 24.5 µM); for `CCNc1nc(SC(C)C(=O)OC)nc(N(C)C)n1` (configuration not stated) it is 30 µg/mL (≈ 105 µM).
`CCCOC(=O)CC1C(=O)NCCN1Cc1cc(OC)cc(OC)c1` (configuration not stated) showed a kinetic solubility greater than 52.6 µg/mL.
The figure for `COc1cc(CN2CCCC(C)C2)ccc1OCc1ccccc1` (configuration not stated) is 42.9 µg/mL (≈ 132 µM); for `CCN(CC(=O)Nc1ccc(C(=O)OC)cc1)C1CCCCC1` it is 43.3 µg/mL (≈ 136 µM); for `O=[N+]([O-])c1cccc2c(Cl)ccnc12` it is greater than 31.3 µg/mL.
In the case of `O=C(Nc1nccs1)c1ccc(-c2ccc(Cl)cc2)o1`, the solubility (kinetic) was 1.9 µg/mL (≈ 6.23 µM).
The figure for `COC(=O)C1C(O)=C(C(C)=Nc2cccc3ccccc23)C(=O)CC1(C)C` (configuration not stated) is 20.3 µg/mL (≈ 55.6 µM); for `Cc1ccccc1-c1noc(CCC(=O)NCc2ccco2)n1` it is 42.1 µg/mL (≈ 135 µM); for `CC(=O)c1ccc(NC(=O)N2CCc3ccccc3C2)cc1` it is 34.3 µg/mL (≈ 117 µM).
For `O=C(O)Cc1c(C(=O)O)[nH]c2ccc(C(=O)O)cc12` the value was greater than 39.5 µg/mL.
For `COc1ccc(NC(=O)[C@@H](NC(N)=O)C(C)C)cc1Cl` the value was greater than 45 µg/mL.
For the compound `COC(=O)[C@H](Cc1ccccc1)NC(=O)NCc1ccccc1`, the kinetic solubility was determined as 45.4 µg/mL (≈ 145 µM).
In turn, `CCOC(=O)Cc1csc(NC(=O)c2cc3ccccc3o2)n1` had a solubility (kinetic) of 10.4 µg/mL (≈ 31.5 µM). Against the preceding compound, the solubility kinetic is about 4.4-fold lower.
For `Cc1nc2c(C#N)c[nH]n2c(=O)c1CCO` the value was greater than 32.7 µg/mL; for `CCC1CN(C(=O)NCc2ccc(C)cc2)c2cc(C)ccc2O1` (configuration not stated), 0.5 µg/mL (≈ 1.54 µM).
Take `CN1CCc2cccc3c2[C@@H]1Cc1ccc(O)c(O)c1-3.Cl`: the kinetic solubility is 12.5 µg/mL.
In turn, `Oc1ccc(-c2cnc3ccccc3n2)cc1` showed a solubility (kinetic) of 26.9 µg/mL (≈ 121 µM). Against the preceding compound, the solubility kinetic is about 2.2-fold higher.
`N/C(=N/[N+](=O)[O-])N1CCN(C(=O)Oc2ccc([N+](=O)[O-])cc2)CC1` registered a solubility (kinetic) greater than 50.7 µg/mL.
For `COc1ccccc1N1C(=O)c2ccccc2NC1c1ccc(O)cc1` (configuration not stated) the value was 12.8 µg/mL (≈ 37 µM); for `CC(NC(=O)CN(c1ccc(Br)cc1)S(C)(=O)=O)c1ccccc1` (configuration not stated), greater than 61.7 µg/mL.
The figure for `CN(C)S(=O)(=O)c1cccc(NC(=O)c2cc(=O)[nH]c(=O)[nH]2)c1` is greater than 50.8 µg/mL; for `Br.N=C1CCCN1CC(=O)c1cccs1` it is 39 µg/mL.
For `CCN(CC)CCN1CNC(=S)N(c2ccccc2OC)C1`, the solubility (kinetic) is greater than 48.4 µg/mL.
In turn, `O=C(Nc1ccc(N2CCCC2)cc1)c1ccc(Br)cc1` gave a kinetic solubility of 1.4 µg/mL (≈ 4.06 µM).
The figure for `O=C(CC(SCCO)c1ccc([N+](=O)[O-])cc1)c1ccco1` (configuration not stated) is 3.7 µg/mL (≈ 11.5 µM); for `O=C(Nc1cc(Cl)ccc1-n1cncn1)C1CC1` it is greater than 39.4 µg/mL.
For `Fc1ccc(N2CCN(c3cnc4ccccc4n3)CC2)cc1` the value was 1 µg/mL (≈ 3.24 µM); for `Cc1ccc(C(=O)NCCNC(=O)c2cccnc2)cc1`, 40 µg/mL (≈ 141 µM).
The figure for `Cc1ccc(C(=O)Oc2ccccc2N2CCOCC2)cc1` is 4.9 µg/mL (≈ 16.5 µM); for `CCN(CC)S(=O)(=O)c1ccc(-c2csc(C)n2)cc1` it is 37.3 µg/mL (≈ 120 µM).
In turn, `O=C(/C=C/c1cccc2ccccc12)N1CCOCC1` gave a kinetic solubility greater than 40.1 µg/mL.
The figure for `Cc1ccc(-c2nc3ccccc3nc2-c2ccccc2)cc1` is 1 µg/mL (≈ 3.37 µM).
The figure for `CCC(C)Nc1nc2c(c(=O)[nH]c(=O)n2C)n1CCOc1ccccc1` (configuration not stated) is 19.8 µg/mL (≈ 55.4 µM).
With `Cc1ccc(NC(=O)CN2C(=O)c3ccccc3C2=O)cc1`, the kinetic solubility was 2 µg/mL (≈ 6.8 µM).
For `CN1CCN(C2CCN(c3cccc(Cl)c3)CC2)CC1CCO` (configuration not stated) the value was 36.8 µg/mL (≈ 109 µM).
With `N#Cc1ccccc1-c1ccccc1C(=O)N1CCCCC1`, the solubility (kinetic) is greater than 43.6 µg/mL.
For the compound `COc1cc(CNCCc2ccc3c(c2)OCO3)ccc1O.Cl`, the solubility (kinetic) is greater than 50.7 µg/mL.
On to `COc1ccc(S(=O)(=O)NCCNC(=O)N2CCOCC2)cc1`, for which the solubility (kinetic) was greater than 51.5 µg/mL.
The figure for `CC(=O)c1cccc(NC(=O)CC2CCCC2)c1` is greater than 36.8 µg/mL; for `CCN(C(=O)COC(=O)c1ccc([N+](=O)[O-])o1)C1CCCCC1` it is greater than 48.6 µg/mL; for `CCCc1cc(=O)[nH]c(SCC(=O)Nc2cccc3ccccc23)n1` it is 3.4 µg/mL (≈ 9.62 µM).
For `O=C(Nc1ccc(Cl)cc1F)C1CC(=O)N(Cc2ccco2)C1` (configuration not stated) the value was greater than 50.5 µg/mL.
The figure for `O=c1[nH]c(O)c(C=Nc2ccc(F)c(Cl)c2)c(=O)[nH]1` is 14 µg/mL (≈ 49.4 µM); for `Cc1ccc(CC2CC(=O)N(CCc3ccccc3)C2=O)cc1` (configuration not stated) it is 2.9 µg/mL (≈ 9.43 µM); for `COc1ccc(Cl)cc1NC(=O)CN(C)C(=O)/C=C/c1ccco1` it is greater than 52.3 µg/mL.
The compound `COc1ccc(NC(=O)NC2(C(=O)N3CCCC3)CCCCC2)cc1` came in with a solubility (kinetic) of 24 µg/mL (≈ 69.5 µM).
As for `CC(NC(=O)c1ccc(S(=O)(=O)Nc2ccccc2Cl)cc1)c1ccncc1` (configuration not stated), the kinetic solubility is greater than 62.4 µg/mL.
The figure for `O=S(=O)(c1cc(F)ccc1F)N1CCN(c2ncnc3ccccc23)CC1` is 56.7 µg/mL (≈ 145 µM); for `COc1ccccc1C(C)NC(=O)Cc1ccsc1` (configuration not stated) it is greater than 41.3 µg/mL.
